The source of these data is patent US20070089183A1, “Size and/or growth engineering by modulation of the interaction between calmodulin, and brassinosteroid biosynthetic enzymes and orthologs therof” (Washington State University, priority 2005, published 2007).

Experiment [1] concerns cM1, cM2, cM3 and the dwf1 mutant. The experiment can be described thus: exogenous application of brassinolide to dwarf plants. To be noted: data not shown. It is filed as in vivo, Arabidopsis. The text has this: To ensure a reliable comparison of the complementary effects of normal DWF1 and the three mutants, T2 plants with similar expression levels were compared (FIG. 3b-d). […] Seeds were produced in most of the slightly shorter siliques of cM1 plants (FIG. 3b, c). […] The dwarf phenotypes of cM1, cM2, cM3 and the dwf1 mutant were rescued by exogenous application of brassinolide (data not shown).

A further experiment has as its system DWF4 null mutant. In words: complementation of DWF4 null mutant or overexpression, plant growth. It is filed as in vivo, Arabidopsis. The text has this: For example, partial dwarf Arabidopsis plants were generated through manipulation of the DWF4 CaMBD regulatory domain.

Where no end group is shown, it is not given here.

In the case of `CC(C)[C@H](C)[C@@H](O)[C@H](O)[C@@H](C)[C@H]1CC[C@H]2[C@@H]3COC(=O)[C@H]4C[C@H](O)[C@H](O)C[C@]4(C)[C@H]3CC[C@]12C` [brassinolide], the “rescue of dwarf phenotypes” value in experiment [1] was “rescued”. “mutant having a L to V change at amino acid 28: DWF4 with L to V change at aa 28 within the N-terminal CaMBD (PSLLSLLLFLILVKRRNRKTRFNLP; listed as Arabidopsis thaliana)”: in the experiment on DWF4 null mutant (overexpression), the plant growth phenotype entry is “enhanced growth”. For the molecule “DWF4 mutant having a L to D change at amino acid 21: DWF4 with L to D change at aa 21 within the N-terminal CaMBD (PSLLSDLLFLILLKRRNRKTRFNLP; not fully specified; listed as Arabidopsis thaliana)”, in the experiment on DWF4 null mutant (complementing a DWF4 null mutant), the plant growth phenotype entry was “semi-dwarf”.
